{"source": "ChEMBL document CHEMBL1201862", "about": "“PubChem BioAssay data set” (2004)", "key": {"[1]": {"molecular_target": "G-protein coupled receptor 35 (Homo sapiens, UniProt Q9HC97)", "sequence (Q9HC97 whole entry)": "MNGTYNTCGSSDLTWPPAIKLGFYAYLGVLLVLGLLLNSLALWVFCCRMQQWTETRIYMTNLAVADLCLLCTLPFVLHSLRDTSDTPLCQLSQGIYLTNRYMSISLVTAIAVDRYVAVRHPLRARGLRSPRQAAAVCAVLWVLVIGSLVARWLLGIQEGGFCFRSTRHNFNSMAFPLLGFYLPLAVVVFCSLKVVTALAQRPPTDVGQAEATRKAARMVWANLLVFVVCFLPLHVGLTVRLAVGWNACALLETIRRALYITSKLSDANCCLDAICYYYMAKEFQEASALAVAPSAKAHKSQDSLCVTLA", "test": "GPR35 antagonists blocking zaprinast-driven arrestin recruitment, primary screen, imaging, U2OS, beta-arrestin-GFP, zaprinast agonist (AID 2058);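 note: antagonist potency meaning inhibition of agonist-induced arrestin redistribution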", "type": "functional"}, "[2]": {"molecular_target": "Cytochrome P450 2C9 (Homo sapiens, UniProt P11712)"}, "[3]": {"molecular_target": "G-protein coupled receptor 55 (Homo sapiens, UniProt Q9Y2T6)", "test": "GPR55 antagonists blocking LPI-driven arrestin recruitment, primary screen, imaging, U2OS, beta-arrestin-GFP, LPI agonist (AID 2013);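 note: antagonist potency measured as reduced agonist-driven arrestin aggregation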", "type": "functional"}, "[4]": {"molecular_target": "DNA repair protein RAD52 homolog (Homo sapiens, UniProt P43351)", "sequence (P43351 whole entry)": "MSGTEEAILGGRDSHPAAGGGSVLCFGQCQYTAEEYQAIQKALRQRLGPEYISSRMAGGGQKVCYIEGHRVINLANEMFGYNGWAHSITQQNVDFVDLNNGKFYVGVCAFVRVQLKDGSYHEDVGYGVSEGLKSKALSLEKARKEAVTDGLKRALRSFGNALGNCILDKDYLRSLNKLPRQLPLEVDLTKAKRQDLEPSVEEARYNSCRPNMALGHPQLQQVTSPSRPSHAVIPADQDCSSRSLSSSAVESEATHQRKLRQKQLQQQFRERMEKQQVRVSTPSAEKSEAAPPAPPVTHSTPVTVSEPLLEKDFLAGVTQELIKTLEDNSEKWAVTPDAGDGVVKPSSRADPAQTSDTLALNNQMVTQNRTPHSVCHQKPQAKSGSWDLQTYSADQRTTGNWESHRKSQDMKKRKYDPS", "type": "functional, biochemical"}, "[5]": {"molecular_target": "T1, Short transient receptor potential channel 4 (Mus musculus, UniProt Q9QUQ5)", "T1 sequence (Q9QUQ5 whole entry)": "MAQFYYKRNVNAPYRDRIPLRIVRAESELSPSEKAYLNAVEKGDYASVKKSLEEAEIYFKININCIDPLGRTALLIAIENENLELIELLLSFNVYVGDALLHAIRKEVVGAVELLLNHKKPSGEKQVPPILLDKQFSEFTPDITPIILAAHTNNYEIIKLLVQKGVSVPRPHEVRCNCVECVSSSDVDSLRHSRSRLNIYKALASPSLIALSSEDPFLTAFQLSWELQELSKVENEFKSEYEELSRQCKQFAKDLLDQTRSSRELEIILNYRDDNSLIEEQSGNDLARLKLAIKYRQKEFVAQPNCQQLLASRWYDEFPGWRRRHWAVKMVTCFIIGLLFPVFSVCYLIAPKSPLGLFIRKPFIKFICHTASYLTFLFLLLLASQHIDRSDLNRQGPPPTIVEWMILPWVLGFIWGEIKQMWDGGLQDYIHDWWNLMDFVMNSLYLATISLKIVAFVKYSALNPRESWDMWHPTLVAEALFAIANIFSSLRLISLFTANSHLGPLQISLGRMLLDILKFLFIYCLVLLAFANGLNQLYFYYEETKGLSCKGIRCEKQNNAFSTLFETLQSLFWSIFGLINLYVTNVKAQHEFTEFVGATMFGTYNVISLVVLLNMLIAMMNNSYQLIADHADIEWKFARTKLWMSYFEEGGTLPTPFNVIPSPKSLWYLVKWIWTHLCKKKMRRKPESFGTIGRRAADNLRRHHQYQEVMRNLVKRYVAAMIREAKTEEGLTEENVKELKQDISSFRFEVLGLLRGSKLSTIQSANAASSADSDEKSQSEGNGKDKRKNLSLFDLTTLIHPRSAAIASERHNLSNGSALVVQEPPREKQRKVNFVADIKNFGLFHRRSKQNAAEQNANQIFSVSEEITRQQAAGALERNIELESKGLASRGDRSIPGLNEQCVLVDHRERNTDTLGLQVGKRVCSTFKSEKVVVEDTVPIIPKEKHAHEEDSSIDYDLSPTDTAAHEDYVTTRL", "test": "mouse TRPC4 channel inhibitors, dose response, cell-based, HEK293 TRPC4/mu-opioid, Fluo-4 calcium (AID 434942)", "type": "functional"}, "[6]": {"molecular_target": "T2, RNA-editing ligase 1, mitochondrial (Trypanosoma brucei brucei, UniProt P86926)", "T2 sequence (P86926 whole entry)": "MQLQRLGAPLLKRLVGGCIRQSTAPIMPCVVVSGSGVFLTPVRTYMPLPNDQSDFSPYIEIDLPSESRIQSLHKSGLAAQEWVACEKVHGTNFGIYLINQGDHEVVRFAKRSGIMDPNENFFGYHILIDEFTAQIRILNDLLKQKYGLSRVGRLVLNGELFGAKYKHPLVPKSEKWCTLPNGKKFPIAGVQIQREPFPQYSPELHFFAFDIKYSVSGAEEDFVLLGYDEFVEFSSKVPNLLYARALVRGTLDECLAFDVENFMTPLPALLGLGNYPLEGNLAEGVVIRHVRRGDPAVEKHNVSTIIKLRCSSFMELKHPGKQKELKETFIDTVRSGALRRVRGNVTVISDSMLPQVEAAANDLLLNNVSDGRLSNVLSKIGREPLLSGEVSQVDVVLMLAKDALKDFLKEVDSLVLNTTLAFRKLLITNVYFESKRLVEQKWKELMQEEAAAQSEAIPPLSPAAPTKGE", "test": "TbREL1 ligase inhibitors, dose response, biochemical, fluorescence, Trypanosoma brucei (AID 1117295)", "type": "functional"}, "[7]": {"molecular_target": "Neutrophil collagenase (Homo sapiens, UniProt P22894)", "test": "MMP13 inhibition and MMP selectivity, late-stage follow-up, selectivity assay for MMP13 inhibitor project, biochemical, probe development, late stage results, panel member MMP-8 [IC50 Assay] (AID 2067)"}, "[8]": {"molecular_target": "T3, Voltage-gated N-type calcium channel alpha-1B subunit/Amyloid beta A4 precursor protein-binding family A member 1 (Homo sapiens, UniProt Q00975+Q02410)", "T3 sequence (Q00975 whole entry)": "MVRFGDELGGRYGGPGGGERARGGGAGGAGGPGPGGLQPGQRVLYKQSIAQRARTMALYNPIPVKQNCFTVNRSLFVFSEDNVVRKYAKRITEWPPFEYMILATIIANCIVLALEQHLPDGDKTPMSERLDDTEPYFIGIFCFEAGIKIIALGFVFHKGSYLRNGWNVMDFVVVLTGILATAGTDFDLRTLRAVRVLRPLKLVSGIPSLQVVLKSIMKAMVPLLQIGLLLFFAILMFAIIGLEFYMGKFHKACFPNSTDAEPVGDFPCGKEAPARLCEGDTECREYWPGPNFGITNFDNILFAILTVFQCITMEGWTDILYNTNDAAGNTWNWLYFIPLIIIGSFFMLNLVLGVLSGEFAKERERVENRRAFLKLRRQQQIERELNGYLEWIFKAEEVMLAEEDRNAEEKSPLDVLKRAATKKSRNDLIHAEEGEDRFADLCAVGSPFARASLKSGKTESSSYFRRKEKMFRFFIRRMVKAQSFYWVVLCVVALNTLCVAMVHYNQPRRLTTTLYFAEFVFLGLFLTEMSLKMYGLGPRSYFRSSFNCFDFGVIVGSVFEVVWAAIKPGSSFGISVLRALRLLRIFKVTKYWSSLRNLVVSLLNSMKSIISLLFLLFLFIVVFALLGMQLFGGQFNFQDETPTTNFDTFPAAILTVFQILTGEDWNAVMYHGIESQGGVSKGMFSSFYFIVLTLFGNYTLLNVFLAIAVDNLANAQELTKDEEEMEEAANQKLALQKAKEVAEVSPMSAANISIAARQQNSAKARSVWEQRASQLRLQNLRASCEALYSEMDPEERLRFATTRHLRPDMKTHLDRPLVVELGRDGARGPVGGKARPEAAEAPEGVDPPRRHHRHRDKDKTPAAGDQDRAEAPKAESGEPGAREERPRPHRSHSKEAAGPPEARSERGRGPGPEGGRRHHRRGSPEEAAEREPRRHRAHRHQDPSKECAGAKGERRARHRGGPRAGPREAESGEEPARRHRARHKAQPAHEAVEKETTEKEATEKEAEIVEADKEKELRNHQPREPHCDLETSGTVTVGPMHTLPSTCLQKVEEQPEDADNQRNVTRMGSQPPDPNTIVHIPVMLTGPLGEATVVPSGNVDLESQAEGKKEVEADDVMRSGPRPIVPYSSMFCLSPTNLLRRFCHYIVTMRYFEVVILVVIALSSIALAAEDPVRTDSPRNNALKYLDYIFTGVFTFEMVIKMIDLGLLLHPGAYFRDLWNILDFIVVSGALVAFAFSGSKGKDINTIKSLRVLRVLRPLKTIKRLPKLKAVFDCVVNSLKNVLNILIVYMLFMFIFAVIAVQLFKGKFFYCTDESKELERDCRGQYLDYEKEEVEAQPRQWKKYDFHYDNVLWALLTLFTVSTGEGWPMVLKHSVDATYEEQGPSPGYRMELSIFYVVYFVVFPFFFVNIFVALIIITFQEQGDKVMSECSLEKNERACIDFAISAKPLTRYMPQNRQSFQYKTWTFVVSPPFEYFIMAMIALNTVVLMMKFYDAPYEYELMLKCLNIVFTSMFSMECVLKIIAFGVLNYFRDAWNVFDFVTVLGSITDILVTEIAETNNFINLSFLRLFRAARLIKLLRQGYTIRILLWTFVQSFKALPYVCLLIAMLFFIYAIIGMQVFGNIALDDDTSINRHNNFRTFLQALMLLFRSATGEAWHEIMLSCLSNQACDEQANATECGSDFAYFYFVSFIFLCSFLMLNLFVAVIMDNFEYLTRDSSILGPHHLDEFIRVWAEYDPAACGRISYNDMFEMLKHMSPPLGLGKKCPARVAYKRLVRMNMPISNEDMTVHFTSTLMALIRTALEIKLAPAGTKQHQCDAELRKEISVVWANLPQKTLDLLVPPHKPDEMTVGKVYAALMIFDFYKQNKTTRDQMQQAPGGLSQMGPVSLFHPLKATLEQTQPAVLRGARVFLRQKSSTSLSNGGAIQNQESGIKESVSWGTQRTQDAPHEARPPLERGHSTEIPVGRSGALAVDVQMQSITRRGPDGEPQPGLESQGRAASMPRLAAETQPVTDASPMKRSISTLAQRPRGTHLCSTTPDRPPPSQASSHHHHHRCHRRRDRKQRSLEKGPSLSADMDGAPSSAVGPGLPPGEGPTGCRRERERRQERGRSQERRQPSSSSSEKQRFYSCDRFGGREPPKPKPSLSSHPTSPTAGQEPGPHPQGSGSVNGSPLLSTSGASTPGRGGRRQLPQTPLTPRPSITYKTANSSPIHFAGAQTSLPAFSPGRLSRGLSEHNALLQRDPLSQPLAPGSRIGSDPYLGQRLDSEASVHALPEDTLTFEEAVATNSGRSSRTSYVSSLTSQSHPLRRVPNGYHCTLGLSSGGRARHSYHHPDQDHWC", "T3 sequence (Q02410 whole entry)": "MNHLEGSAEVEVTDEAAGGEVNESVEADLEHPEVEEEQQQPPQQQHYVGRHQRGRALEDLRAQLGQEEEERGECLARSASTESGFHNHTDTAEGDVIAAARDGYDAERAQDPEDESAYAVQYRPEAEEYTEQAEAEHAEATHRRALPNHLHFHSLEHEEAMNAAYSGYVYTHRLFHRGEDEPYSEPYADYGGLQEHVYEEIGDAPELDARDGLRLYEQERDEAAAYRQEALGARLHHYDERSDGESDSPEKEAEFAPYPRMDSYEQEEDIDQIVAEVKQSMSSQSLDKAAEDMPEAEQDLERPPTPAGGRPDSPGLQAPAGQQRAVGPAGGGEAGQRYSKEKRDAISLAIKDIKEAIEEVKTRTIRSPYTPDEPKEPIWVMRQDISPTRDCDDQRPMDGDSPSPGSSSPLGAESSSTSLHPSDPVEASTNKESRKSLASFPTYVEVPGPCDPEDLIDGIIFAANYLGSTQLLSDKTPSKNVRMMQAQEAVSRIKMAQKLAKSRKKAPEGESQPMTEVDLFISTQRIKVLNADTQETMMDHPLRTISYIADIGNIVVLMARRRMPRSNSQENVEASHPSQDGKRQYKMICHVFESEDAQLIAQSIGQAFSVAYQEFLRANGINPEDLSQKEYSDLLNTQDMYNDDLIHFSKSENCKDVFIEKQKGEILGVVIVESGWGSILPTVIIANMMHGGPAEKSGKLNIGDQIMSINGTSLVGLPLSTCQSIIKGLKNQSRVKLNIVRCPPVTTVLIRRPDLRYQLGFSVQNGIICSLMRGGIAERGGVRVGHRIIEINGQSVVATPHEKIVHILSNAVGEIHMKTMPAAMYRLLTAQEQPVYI", "test": "disruptors of Mint-PDZ/N-type channel peptide interaction – biochemical, HTRF, SAR follow-up (AID 2489)", "type": "functional"}, "[9]": {"molecular_target": "T3, Voltage-gated N-type calcium channel alpha-1B subunit/Amyloid beta A4 precursor protein-binding family A member 1", "test": "disruptors of Mint-PDZ/N-type channel peptide interaction – biochemical, HTRF, set 2, SAR follow-up (AID 434980)", "type": "functional"}, "[10]": {"molecular_target": "SUMO E1/E2 (Homo sapiens, UniProt P63279+Q9UBE0+Q9UBT2)", "sequence (Q9UBE0 whole entry)": "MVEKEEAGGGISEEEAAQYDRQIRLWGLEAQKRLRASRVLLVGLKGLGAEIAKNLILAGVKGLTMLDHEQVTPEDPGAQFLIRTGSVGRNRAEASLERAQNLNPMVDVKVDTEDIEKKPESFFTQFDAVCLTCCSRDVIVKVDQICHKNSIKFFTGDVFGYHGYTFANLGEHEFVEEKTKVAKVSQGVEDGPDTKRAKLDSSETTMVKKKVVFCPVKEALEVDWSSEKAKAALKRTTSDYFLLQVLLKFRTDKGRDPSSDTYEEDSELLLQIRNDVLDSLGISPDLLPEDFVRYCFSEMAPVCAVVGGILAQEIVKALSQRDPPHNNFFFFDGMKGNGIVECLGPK", "sequence (Q9UBT2 whole entry)": "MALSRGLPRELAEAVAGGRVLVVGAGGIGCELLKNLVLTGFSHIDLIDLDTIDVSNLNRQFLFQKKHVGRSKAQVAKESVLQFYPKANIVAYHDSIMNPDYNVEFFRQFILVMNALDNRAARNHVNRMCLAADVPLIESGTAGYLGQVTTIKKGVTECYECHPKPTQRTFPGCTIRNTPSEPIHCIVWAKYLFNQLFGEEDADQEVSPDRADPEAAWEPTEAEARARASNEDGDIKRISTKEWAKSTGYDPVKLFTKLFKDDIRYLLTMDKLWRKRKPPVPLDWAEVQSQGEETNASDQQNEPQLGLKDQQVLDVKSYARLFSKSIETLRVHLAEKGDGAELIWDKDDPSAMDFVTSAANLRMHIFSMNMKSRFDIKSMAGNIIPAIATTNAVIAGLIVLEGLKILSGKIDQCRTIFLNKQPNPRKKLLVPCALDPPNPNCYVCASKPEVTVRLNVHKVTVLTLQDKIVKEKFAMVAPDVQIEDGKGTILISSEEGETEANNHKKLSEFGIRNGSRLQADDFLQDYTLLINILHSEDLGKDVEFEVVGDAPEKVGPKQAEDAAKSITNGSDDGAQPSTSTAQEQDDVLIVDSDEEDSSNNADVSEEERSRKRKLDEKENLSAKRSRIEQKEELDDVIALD", "sequence (P63279 whole entry)": "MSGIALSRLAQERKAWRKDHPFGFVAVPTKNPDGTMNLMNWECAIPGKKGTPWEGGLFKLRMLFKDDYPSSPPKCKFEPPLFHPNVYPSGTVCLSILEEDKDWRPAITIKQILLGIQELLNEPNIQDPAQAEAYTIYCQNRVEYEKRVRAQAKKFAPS", "test": "SAR analysis of SUMOylation using HTRF in an in-Vitro dose response assay. [Related pubchem assays (depositor defined):AID2006, AID2011, AID2018, AID2069, AID2658]", "type": "functional"}}, "note": "The source made the active and inactive calls.", "data": [{"smiles": "CC(=O)Oc1ccc(C(c2ccc(OC(C)=O)cc2)c2ccccn2)cc1", "note": "[BISACODYL]", "values": [{"measurement": "IC50", "setting": "[1]", "result": "> 32 µM (inactive)"}, {"measurement": "AC50", "setting": "[2]", "result": "15.8 µM (inconclusive)"}, {"measurement": "IC50", "setting": "[3]", "result": "0.908 µM (active)"}]}, {"smiles": "CCCCCC[N+](C)(C)CC/C=C1/c2ccccc2Sc2ccc(Cl)cc21", "values": [{"measurement": "AC50", "setting": "[4]", "result": "10.2 µM (active)"}, {"measurement": "EC50", "setting": "[5]", "result": "0.299 µM (active)"}, {"measurement": "IC50", "setting": "[6]", "result": "> 96.6 µM (inactive)"}]}, {"smiles": "O=c1[nH]c(SCCc2ccccc2)nc2c1CCC2", "values": [{"measurement": "IC50", "setting": "[7]", "result": "> 39.8 µM (inactive)"}]}, {"smiles": "COc1ccc(CNC(=O)COC(=O)c2cc(-c3ccc(C)o3)nc3ccccc23)cc1", "values": [{"measurement": "IC50", "setting": "[8]", "result": "> 56.8 µM (inactive)"}, {"measurement": "IC50", "setting": "[9]", "result": "> 56.8 µM (inactive)"}, {"measurement": "IC50", "setting": "[10]", "result": "4 µM (active)"}]}]}
